Assays:
[1] = Dialysis assay against PBS (treprostinil release); type: physicochemical; details: 5 mL dialyzed against 1 L 1×PBS, 50 kDa MW cutoff membrane
Experimental: The results of this study can be used as an indication of which compositions might provide a sustained release profile in vivo.
5 mL of each sample was dialyzed against 1 L of 1×PBS. […] sample was collected and tested by HPLC at different time points (FIG. 7). 250 μL sample was collected at 24 h. Each time a sample was collected, an equal volume of 1×PBS was added to the dialysis bag. Absorbance data was normalized to the calculated dilution factor.

EP2 prostanoid receptor = biological target: T1, EP2 prostanoid receptor (Homo sapiens, UniProt P43116); experiment: GloSensor cAMP assay in CHO-K1 cells co-transfected with EP2 receptor; type: cell-based
T1 construct: host or cells: CHO-K1
From the text: A cell based Chinese hamster ovary-K1 (CHO-K1) assay based on the GloSensor™ cAMP assay (Promega) was used to characterize the effect of treprostinil alkyl ester compounds on cAMP levels.
cAMP is a second messenger involved in signal transduction of G-protein coupled receptors (GPCRs) acting through Gα-s and Gα-i proteins. Because the treprostinil receptor is a GPCR, the assay provides an indication of whether the respective prostacyclin composition binds its receptor and activates the GPCR cell signaling cascade.
The GloSensor™ assay harnesses a genetically modified form of firefly luciferase into which a cAMP-binding protein moiety has been inserted. Upon binding of cAMP, a conformational change is induced leading to increased light output.
The EP2 prostanoid receptor was co-transfected with the GloSensor™ plasmid (Promega) into CHO-K1 cells as follows. CHO-K1 cells were harvested when the monoloayer was at 50-90% confluence. First, cells were washed with 5 mL PBS. […] Cell number was determined using a hemacytometer. […]
Following incubation, cells were treated and analyzed. […] Cell number was determined using a hemacytometer. […] Following an overnight incubation at 37° C. and 5% CO2 in a water-jacketed incubator, the cells were ready for use in cAMP response assays. […]

[2] = cited from earlier work

T1 sequence (P43116 whole entry): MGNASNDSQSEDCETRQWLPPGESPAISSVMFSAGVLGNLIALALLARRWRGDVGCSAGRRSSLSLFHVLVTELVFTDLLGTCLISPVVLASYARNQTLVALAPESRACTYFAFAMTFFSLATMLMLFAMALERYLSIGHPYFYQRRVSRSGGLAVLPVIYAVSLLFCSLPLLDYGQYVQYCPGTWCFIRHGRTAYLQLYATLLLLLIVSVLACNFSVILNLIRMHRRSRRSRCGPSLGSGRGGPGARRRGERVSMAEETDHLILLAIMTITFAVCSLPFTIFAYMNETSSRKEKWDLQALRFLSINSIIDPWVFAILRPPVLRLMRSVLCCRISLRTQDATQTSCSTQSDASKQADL

CCCCC[C@H](O)CC[C@@H]1[C@H]2Cc3cccc(OCC(=O)O)c3C[C@H]2C[C@H]1O [treprostinil]
rate of treprostinil release during dialysis [1]: dialyzed out the fastest
sustained cAMP level (EP2 prostanoid receptor): not exhibited
time to steady state plasma concentrations ([2]; continuous subcutaneous infusion, 1.25 to 22 ng/kg/min): about 10 hours
excreted in urine as identifiable metabolite ([2]; in vivo): 64%
excreted in urine as unchanged drug ([2]; in vivo): 4%
decrease of clearance ([2]; patients with hepatic insufficiency): up to 80%
absolute bioavailability ([2]; subcutaneous administration): 100%
elimination half-life ([2]; subcutaneous administration): 4.6 h
administered drug excreted in urine ([2]; unchanged drug or identifiable metabolite): Approximately 79%

CCCCC[C@H](O)/C=C/[C@@H]1[C@H]2C/C(=C/CCCC(=O)O)O[C@H]2C[C@H]1O [epoprostenol]
half-life ([2]; in vivo): 2 to 7 min
